Patent US20220349876A1, “USE OF DKK1 INHIBITOR IN PREVENTION AND/OR TREATMENT OF TUMOR CACHEXIA AND DISEASES ASSOCIATED WITH DIABETES” (SHANGHAI DONGTSU BIOSCIENCES CO., LTD., priority 2019, published 2022)
Entries after “also recorded” stand apart in the source; their conditions may differ.

How the values were obtained:
Leptin−/− mice = Leptin−/− mice injected with D-glucose, MDC rescue; format: in vivo, mouse; conditions: 6-week-old Leptin−/− mice, D-glucose every 2 h for 24 h
Description: The in vivo rescue experiment of MDC in Leptin^−/− mice was performed by pre-intraperitoneal injection of MDC in 6-week-old Leptin^−/− mice (diluted in sterile PBS, 10 mg/kg) or the corresponding volume of DMSO (diluted in sterile PBS). The injected dose of MDC in Leptin^−/− mice should be calculated based on the body weight of 6-week-old littermates of WT mice. After 1 h of MDC intervention, 50% D-glucose or the corresponding volume of PBS was injected intraperitoneally. The procedure of injecting D-glucose into Leptin^−/− mice was as follows: 12 injections were performed every 2 hours during the 24-hour period, and the injection dose of D-glucose was fixed at the first dose (2 g/kg).

wild-type mice heart = assay: Local injection of Dkk1 protein into the heart combined with MDC or BIM-46187; format: in vivo, mouse
Description: In the experiment of local injection of Dkk1 purified protein into the heart combined with MDC intervention, 10-week-old wild-type male mice were selected, the left chest was depilated, and intraperitoneal injection of MDC (diluted in sterile PBS, 10 mg/kg) or the corresponding volume of DMSO (diluted in sterile PBS) and injected at the same time every day thereafter. After 1 h of MDC intervention, cardiac Dkk1 protein injection was performed. The mice were given continuous inhalation anesthesia with 1% isoflurane and oxygenated with a ventilator, and then the fourth intercostal space near the sternum was opened to expose the heart. Using a 200 μl microsyringe, Dkk1 (10 μg of Dkk1 per heart, dissolved in 30 μl PBS) or an equal volume of PBS was injected locally at three sites in the heart. Of these, two sites are on the border around the left ventricle, and one site enters the myocardium of the left ventricle. After the injection, the wound was sutured, the anesthesia was removed, and the mice were awake. After MDC was continuously intervened for 2 days, the mice were anesthetized and the materials were collected.
In addition to injecting Dkk1 protein alone into the heart, we also need to perform experiments of local injection of Dkk1 combined with BIM-46187 into mouse hearts. According to the experimental grouping, it was divided into cardiac injections of four different solutions, including PBS, Dkk1, BIM-46187, and a mixture of Dkk1 and BIM-46187. The dosage of Dkk1 per heart is 10 μg, and the dosage of BIM-46187 is 2.4 ng, diluted with 30 μl PBS and then injected into the heart. The specific operation steps are the same as above. After the injection, the wound was sutured, the anesthesia was removed, and the mice were awake. Two days after the injection, the mice were anesthetized and the materials were collected.

LRP6 and Kremen2 = assay: Intramuscular injection of Dkk1, Western blot of membrane LRP6 and Kremen2; format: in vivo, mouse
Description: Wild-type mice and β-arrestin2+/−KO mice were injected into the left quadriceps (0.25 mg/kg) and an equal volume of PBS was injected into the right leg as controls. MDC (10 mg/kg), IGFBP-4/H95P (1.7 mg/kg) or PBS were injected in combination with Dkk1 as a control to observe the effects of drugs on Dkk1-induced signal transduction. After 48 hours, the mice were sacrificed, and the left and right quadriceps were taken to measure the […].
Membrane proteins were extracted according to the instructions of Membrane Protein Extraction Kit (Sangon Biotech, China). Western blot analysis omitted. Antibodies for WB analysis were purchased from Cell Signaling Technology and Proteintech.

HUVEC cells = assay: γH2AX DNA damage response in HUVEC cells (Western blot); format: cell-based
Description: (2) The transfection system of a 3.5 cm petri dish was prepared as follows: 1 μl of siRNA Oligo/Red (concentration of the original solution was 20 μM) was added to an EP tube containing 250 μl of pure Opti-MEM and mixed, and 1.5 μl of RNAiMAX (transfection Reagent) was added to the flow tube containing 250 μl of pure Opti-MEM and mixed, and then all the liquid in the EP tube was added to the flow tube and mixed, and allowed to stand at room temperature for 15 min.
(3) The prepared transfection system was added to a 3.5 cm culture dish, and the cells were cultured for 24-48 h, then the samples were collected and the total cell protein was extracted, and the knockdown effect of the gene was identified by Western Blotting.
(3) Add 150 μl of total protein lysate to each cell sample to make the lysate fully contact with the cells, scrape off the cell lysate with a scraper, collect it into a pre-cooled EP tube, and take an ice bath for 15 min.
(§1) Protein electrophoresis gels are double-layered gels, including an upper stacking gel and a lower separating gel. The concentration of the stacking gel is 5%, and the concentration of the separating gel is determined according to the molecular weight of the target protein. In this study, large molecular weight proteins (LRP5/6, β-catenin, β-arrestin1/2) used 8%-5% double-layer gel, and small molecular weight proteins (γH2AX, p53, p21, Bcl-2, Bax, Cleaved Caspase-3) used 12%-5% double-layer gel. In addition, the number of wells (10 wells or 15 wells) and thickness (1 mm or 1.5 mm) of the preparation gel were selected according to the number and volume of protein samples loaded. The gel formulation is shown in the experimental material section, and the preparation steps are as follows: […]

CT26 tumor-bearing mice [1] = assay: Survival of CT26 tumor-bearing mice (Kaplan-Meier); conditions: mouse, in vivo; for survival of tumor-bearing mice: ip
CT26 tumor-bearing mice [2] = assay: Tumor cachexia in CT26 tumor-bearing mice: tumor-free body weight, muscle weight, muscle membrane proteins; format: in vivo, mouse
β-arrestin1/2 = β-arrestin1/2 translocation in HUVEC cells (Western blot); format: cell-based
Description: (§2) (5) Add 100 μl (cell) or 200 μl (tissue) A solution to each sample, and resuspend the cell pellet with a pipette to completely disperse the pellet. The tissue pellet should be fully homogenized on ice with a homogenizer, and the ice bath should be used for 15 min.
(§3) (10) Add 50 μl (cells) or 100 μl (tissue) B solution to each sample, resuspend the pellet in Vortex at the highest speed for 10 s, ice bath for 10 min, and repeat twice to fully extract membrane proteins.
as §1

[3] = system: STZ-induced diabetic mice; assay: STZ-induced type 1 diabetes mouse model with insulin or MDC rescue; format: in vivo
Description: STZ-induced diabetes is a chemical modeling method for diabetes. Its full name is streptozotocin, which is a broad-spectrum antibiotic isolated from achromatic streptomycin. It can selectively damage islet 13 cells in a short period of time, causing 13 cell necrosis, resulting in varying degrees of blood insulin drop and blood sugar rise, resulting in insulin-dependent type 1 diabetes mellitus. […] Modelling criteria are non-fasting blood glucose values above 13.8 mM (250 mg/dl). The modeling steps are as follows: (4) According to the body weight, mice in the model group were injected intraperitoneally with 2% STZ-citric acid solution (160 mg/kg), and the mice in the control group were intraperitoneally injected with the corresponding volume of citrate buffer. 2 h after the injection, the mice were fed back. […] Specific steps are as follows: (3) According to the body weight, the insulin rescue group was subcutaneously injected with diluted insulin (1 U/kg/day), once a day at the same time for 7 consecutive days, and the control group was given a corresponding volume of normal saline. […] Body weight and random blood glucose were measured at different time points after injection. […] (1) Sample preparation: Store the freshly obtained mouse blood in an EDTA anticoagulation tube, stand at room temperature for 10 min, centrifuge at 1000 g for 15 min, and collect the supernatant, namely plasma. If it cannot be detected immediately, it should be subpackaged and stored at −80° C. to avoid repeated freezing. If precipitation occurs during storage, it should be fully thawed at room temperature before use, and centrifuged again.

[4] = system: GPCR signaling pathways and cachexia-related pathways; assay: RNA-Seq analysis of quadriceps femoris; format: in vivo, mouse; conditions: direct intramuscular injection of Dkk1 protein into the lower limbs
Description: Total RNA was extracted using Trizol kit (Lige technology), RNA sequencing library was constructed from the extracted RNA using Illlumina library preparation protocol, RNA-seq was performed on Illlumina HiSeq4000 platform, using two-terminal protocol, the length of both regions was 150 bp. Sequencing reads were aligned to annotated mouse transcripts (mm10) using hisat2 (v2.1.0). Using GFOLD (v1.1.4) to calculate the gene expression level and has found differentially expressed genes. The parameters are as follows: GFOLD value≠0, and the changing value of the two samples is ≥1.35. The RNA-seq data collector GSE121873 was uploaded to the gene expression comprehensive database. KEGG pathway analysis was performed on the defined genes.

LRP5/6 = assay: Membrane LRP5/6 endocytosis and nuclear β-catenin in HUVEC cells (Western blot); format: cell-based
Description: as §2, §3
(11) Aspirate the residual supernatant completely, and add 50 μl of nuclear protein extract to each sample.
as §1

CN(C)c1cccc2c(S(=O)(=O)NCCCCCN)cccc12 [MDC]
down-regulation of LRP5/6 on cardiac membranes induced by glucose injection (Leptin−/− mice): significantly reversed the down-regulation of LRP5/6 on cardiac membranes
up-regulation of molecular markers of injury induced by glucose injection (Leptin−/− mice): significantly reversed
Dkk1-induced cardiac β-arrestin1/2 translocation (wild-type mice heart; Dkk1 intracardiac injection with MDC or BIM-46187): inhibited
Dkk1-induced cardiac changes (LRP5/6, γH2AX, p53, p21) (wild-type mice heart; Dkk1 intracardiac injection with MDC pretreatment or combined with BIM-46187): reversed
Dkk1-induced endocytosis / downregulation of membrane LRP6 and Kremen2 (LRP6 and Kremen2; simultaneous injection with Dkk1): prevents this phenomenon
γH2AX signaling enhanced by H2O2 in the presence of Dkk1 (HUVEC cells; Dkk1 then H2O2 50 μM): significantly attenuated
H2O2-induced γH2AX activation (HUVEC cells; H2O2 50 μM, without Dkk1): does not prevent H2O2-induced γH2AX activation
γH2AX response by the substance itself (HUVEC cells; no Dkk1, no H2O2): does not elicit γH2AX responses
Dkk1-induced γH2AX activation (HUVEC cells; pretreatment with MDC or LRP6N protein): attenuated; also recorded: prevents
death / shortened survival of tumor-bearing mice induced by Dkk1 injection (CT26 tumor-bearing mice [1]): prolong the shortening of survival in tumor-bearing mice caused by Dkk1; also recorded: inhibit the rapid death of tumor-bearing mice induced by Dkk1 injection
survival of tumor-bearing mice (CT26 tumor-bearing mice [1]): prolongs the survival of CT26 mice
loss of body weight and muscle weight (CT26 tumor-bearing mice [2]): reverse tumor-induced loss of tumor-free body weight and muscle atrophy; also recorded: completely prevents the loss of body weight and muscle weight
downregulation of LRP6 and Kremen2 on membrane in muscle (CT26 tumor-bearing mice [2]; Western blot): reverses downregulation of LRP6 and Kremen2 on membrane
Dkk1-induced translocation of β-arrestin1/2 (β-arrestin1/2; MDC pretreatment): prevent the above translocation changes of β-arrestin1/2; also recorded: prevents the translocation of β-arrestin1/2 into cells
blood 8-OHdG (ELISA) ([3]; STZ diabetic mice): prevented the elevation of 8-OHdG
blood glucose concentration ([3]; STZ diabetic mice): without altering blood glucose concentrations; also recorded: do not alter blood glucose levels
body weight loss of diabetic mice ([3]; STZ diabetic mice): inhibits; also recorded: suppressed
cardiac p53, p21, Bax/Bcl-2 and Cleaved Caspase-3 ([3]; STZ diabetic mice, heart): inhibits the upregulation of p53, p21, Bax/Bcl-2 and Cleaved Caspase-3
cardiac γH2AX ([3]; STZ diabetic mice, heart): γH2AX activation in diabetic hearts can also be inhibited
damage to myocardial structure (HE staining) ([3]; STZ diabetic mice, heart): prevented
translocation of cardiac β-arrestin1/2 in diabetic hearts ([3]; STZ diabetic mice, heart): prevented
overall LRP5/6 and nuclear or overall β-catenin expression levels ([3]; STZ diabetic mice, heart, MDC): remain unchanged
LRP5/6 on the cardiac membrane ([3]; STZ diabetic mice, heart, Western blot): STZ-induced downregulation of LRP5/6 in diabetic cardiac membranes can be inhibited
translocation of insulin receptors on the cardiac membrane or in the plasma ([3]; substance alone (FIG. 19G)): does not induce translocation of insulin receptors

B1: Dkk1: recombinant mouse Dkk1 protein purchased from Genscript; secreted protein inducing LRP5/6 endocytosis (protein)
chain: TLNSVLINSNAIKNLPPPLGGAGGQPGSAVSVAPGVLYEGGNKYQTLDNYQPYPCAEDEECGSDEYCSSPSRGAAGVGGVQICLACRKRRKRCMRHAMCCPGNYCKNGICMPSDHSHFPRGEIEESIIENLGNDHNAAAGDGYPRRTTLTSKIYHTKGQEGSVCLRSSDCAAGLCCARHFWSKICKPVLKEGQVCTKHKRKGSHGLEIFQRCYCGEGLACRIQKDHHQASNSSRLHTCQRH
activation of GPCR signaling pathways and cachexia-related pathways [4]: immediately led to the activation of GPCR signaling pathways and cachexia-related pathways
cardiac membrane LRP5/6, γH2AX, p53, p21 and β-catenin signaling (wild-type mice heart; Dkk1 purified protein injected into myocardium, alone): directly induce the down-regulation of LRP5/6 and the up-regulation of γH2AX, p53 and p21 on the cardiac membrane without affecting β-catenin signaling
cardiac β-arrestin1/2 translocation (wild-type mice heart; direct injection of Dkk1 into the heart, alone): induces down-regulation of membrane β-arrestin1/2 and plasma β-arrestin1/2 and nuclear β-arrestin1 are up-regulated
translocation of insulin receptors in cardiac cells (wild-type mice heart; direct injection of Dkk1 protein): do not undergo translocation changes
membrane LRP6 and Kremen2 after intramuscular injection of Dkk1 (LRP6 and Kremen2; Dkk1 alone, lower limbs of normal mice): causes the endocytosis of LRP6 and Kremen2 on the membrane
time of peak γH2AX activation (HUVEC cells; Dkk1 100 ng/ml): 15 min
time to significant γH2AX activation (HUVEC cells; Dkk1 100 ng/ml): ≤ 5 min
survival of tumor-bearing mice (CT26 tumor-bearing mice [1]): significantly shorten the survival period of tumor-bearing mice
time after which nuclear β-catenin is down-regulated (LRP5/6; Dkk1 100 ng/ml): 60 min
time from which endocytosis of LRP5 on the cell membrane is induced (LRP5/6; Dkk1 100 ng/ml): 15 min
time from which endocytosis of LRP6 on the cell membrane is induced (LRP5/6; Dkk1 100 ng/ml): 5 min
nuclear β-catenin expression within 30 min (LRP5/6; higher doses of Dkk1): does not down-regulate nuclear β-catenin expression
β-arrestin1/2 translocation (cytoplasm / cell membrane) (β-arrestin1/2; Dkk1 stimulation alone): rapidly up-regulate β-arrestin1/2 in HUVEC cytoplasm and down-regulate β-arrestin1/2 on the cell membrane
